SMILES | melting point
CCCCCCC(=O)CCC | -9 °C
Nc1ccc(C(F)(F)F)nc1 | 39 to 40 °C
CC(=O)Oc1cccc(N=Nc2cccc(OC(C)=O)c2)c1 | 144 °C
CC(C)(C)[Si](C)(C)ON | 64 °C
CSCCC(NC(=O)c1ccc(C(F)(F)F)cc1)C(=O)NN (stereo not given) | 181 to 184 °C
C=CCCC(=C)C | -129 °C
COc1ccc2c(c1)CC2C(=O)O (stereo not given) | 83 to 89 °C
Brc1cccc(Oc2ccccn2)c1 | 63 to 64 °C
NC(c1ccc(F)cc1)C(N)c1ccc(F)cc1 (stereo not given) | 100 to 104 °C
Cc1nn(C(C)(C)C)c(C)c1C=O | 56 to 61 °C
COc1ccc(CO)cc1OCc1ccccc1 | 85 °C
Clc1ccc(C(Cl)(Cl)Cl)cc1Cl | 25.8 °C
COC1CC2C3(C)CCCC2(COC3)C2C(OC(C)=O)CC3C(C)C(=O)C12C3O (stereo not given) | 165 °C
CN1CCC23c4c5ccc(OCCN6CCOCC6)c4OC2C(O)C=CC3C1C5 (stereo not given) | 91 °C
COc1ccc(CC(=O)O)c(OC)c1OC | 99 to 101 °C
C=CCNC(=S)Nc1sc2c(c1C(=O)OCC)CCCC2 | 151 to 152 °C
O=C(O)CCCCCCCCCCCC(=O)O | 112 to 114 °C
S=C=Nc1ccc(Br)cc1Cl | 46 °C
O=C(O)c1[nH]c2ccc([N+](=O)[O-])cc2c1-c1ccccc1 | 290 °C
CN(CC(=O)O)C(=O)c1ccccc1 | 101 to 105 °C
CCCN(CCC)CCc1cccc2c1CC(=O)N2 | 246 °C
CC1CCCCC1C (stereo not given) | -49.9 °C
O=C1CC(C(=O)O)CC(=O)C1=C(O)C1CC1 (stereo not given) | 144 °C
Clc1cc(Cl)c2oc3cc(Cl)c(Cl)cc3c2c1 | 202 °C
O=[N+]([O-])c1cc([N+](=O)[O-])c(C(Br)=Cc2ccccc2)cc1/C=C\c1ccccc1 | 194 to 196 °C

SMILES | melting point
Fc1c(Cl)cccc1Cl | 38 °C
CCCCCCCCCCCCCCCCCCI | 34 °C
O=[N+]([O-])c1ccc(C=Cc2cccc3ccccc23)c([N+](=O)[O-])c1 | 228 °C
CCCc1c(O)ccc2c(=O)cc(C(=O)O)oc12 | 264 to 267 °C
CC(=O)Nc1ccc(N=Nc2ccc(N)cc2)cc1 | 212 °C
Cc1ccc(NN=C2C(=O)NN=C2c2c(O)c3ccccc3n(C)c2=O)cc1 | 218 °C
CS(=O)(=O)c1ccccc1C(=O)O | 139 °C
CC(=O)C1C(=O)C2(C)CCC1C2(C)C (stereo not given) | 201 °C
NCc1cccc(-c2ccsc2)c1 | 80 °C
Oc1ccc(-c2nnc3n2NC(c2ccco2)S3)cc1 (stereo not given) | 230 °C
O=C1C(=Cc2ccc(-c3ccc(Cl)cc3)o2)CCC1=Cc1ccc(-c2ccc(Cl)cc2)o1 | 264 to 266 °C
CC12C=CC3=C4CCC(=O)C=C4CCC3C1CCC2O (stereo not given) | 93 °C
NC(=O)C(F)(F)C(F)(F)C(F)(F)C(F)(F)C(F)(F)C(F)(F)F | 136 °C
CC(=O)n1nc(C(F)(F)F)cc1-c1ccccc1 | 77 °C
CCCCN(C(C)=O)c1ccccc1 | 24.5 °C
COc1ccccc1P(CCP(c1ccccc1)c1ccccc1OC)c1ccccc1 (stereo not given) | 102 to 104 °C
O=Cc1cc2cc(Br)ccc2o1 | 129 to 130 °C
O/N=C(\Cc1ccccc1)c1ccc2ccccc2c1 | 128 to 130 °C
OCc1ccc(-c2ccccn2)s1 | 86 to 88 °C
O=C1C(=Cc2ccc(F)cc2)CCCC1=Cc1ccc(F)cc1 | 147 to 154 °C
Cc1c(Cl)c(Cl)cc(Cl)c1Cl | 93.5 °C
CCC1(O)CCC2C3CCC4=CCCCC4C3CCC21C (stereo not given) | 77 °C
CC(=O)c1cc2cc3c4c(c2oc1=O)CCCN4CCC3 | 181 to 184 °C
NNC(=O)CSc1ccnc2cc(Cl)ccc12 | 213 to 216 °C
NC(C(=O)O)(c1ccccc1)C1CCC1 (stereo not given) | 256 to 258 °C

SMILES | melting point
COC(=O)c1ccc(-c2cccs2)nc1 | 117 to 118 °C
CC(C)(C)c1cc(C(F)(F)F)n[nH]1 | 178 to 180 °C
C[Si](C)(Cl)C(Cl)Cl | -48 °C
FC(F)(F)C(F)(F)C(Cl)(Cl)Cl | -80 °C
Cc1cc(C)c(O)c([N+](=O)[O-])c1 | 70 °C
OCC1(O)COC(O)(CO)CO1 (stereo not given) | 79 °C
CC1(C)SC2C(N3C(=O)C(c4ccccc4)NC3(C)C)C(=O)N2C1C(=O)O (stereo not given) | 190 °C
NC(=S)c1ncc(C(F)(F)F)cc1Cl | 135 to 136 °C
NC(=O)c1cc(C(=O)CN(Cc2ccccc2)Cc2ccccc2)ccc1O | 168 °C
COc1cc(CC#N)ccc1O | 56.5 °C
Cc1cc(C(C)(C)C)nc(C(C)(C)C)c1 | 33 to 36 °C
Brc1cc(Br)c(Br)c(Br)c1Br | 160 °C
N=C1NC(=O)CS1 | 249 °C
O=C(O)C1CNC1 | 250 to 292 °C
CCCCOc1ccc(N)c([N+](=O)[O-])c1 | 64 to 66 °C
O=C(O)CCNC(=O)CCl | 91 to 92 °C
CCOC(=O)Nc1cccc([N+](=O)[O-])c1[N+](=O)[O-] | 102 to 103 °C
Oc1ccc(F)nc1 | 152 °C
N#Cc1ccc2c(c1)[N+]([O-])=C(c1ccc(C3=[N+]([O-])c4cc(C#N)ccc4C3=O)cc1)C2=O | 360 °C
CCn1nc(C)c(Br)c1C(=O)O | 158 to 162 °C
FC(F)(F)C(F)(C(F)(F)F)C(F)(C(F)(F)F)C(F)(F)F | -16.7 °C
C[P+]([O-])(CCCCN1C(=O)c2ccccc2C1=O)OCCCCN1C(=O)c2ccccc2C1=O (stereo not given) | 114 °C
O=C(O)c1cc([N+](=O)[O-])ccc1Br | 180 °C
CCOC(=O)c1cc2cc(OC)ccc2o1 | 59 to 61 °C
Nc1c(Br)cc(Br)c2c1C(=O)c1ccccc1C2=O | 227 °C

SMILES | melting point
CC(C)CCCC(C)C1CCC2C3CC(=O)C4CC(O)CCC4(C)C3CCC12C (stereo not given) | 140 to 142 °C
CCCCCCCCCCCCN | 28.3 °C
CC1(C(=O)O)CCC2(C)CCC3(C)C(=CC(=O)C4C5(C)CCC(OC(=O)CCC(=O)O)C(C)(C)C5CCC43C)C2C1 (stereo not given) | 292 °C
CC(C)(C)OC(=O)N1CCC(OCC(=O)NC2CC2)CC1 | 86 °C
NC(=O)Cc1nc(-c2ccccc2)cs1 | 193 to 194 °C
Cc1cccc2sc3nncn3c12 | 187 °C
N#C/C(=N\Nc1cc(Cl)c(Cl)cc1Cl)c1nc(-c2ccc(Cl)cc2)cs1 | 176 °C
c1cc2c3c(cccc3c1)-c1nc3ccccc3nc1-2 | 239 to 242 °C
O=P(OCCCl)(OCCCl)OCCCl | -35 °C
COc1ccc(-c2csc(/C(C#N)=N/Nc3cccc(C)c3C)n2)cc1 | 164 °C
COc1ccc(Cc2c(N)nn3c(C)cc(C)nc23)cc1 | 159 to 160 °C
Cc1nc(-c2ccc(N)cc2)cs1 | 140 to 141 °C
Cc1ccc(N2CCCC2=O)cc1 | 86 to 88 °C
CCOc1ccc(NC(=O)C(F)(F)C(F)(F)C(F)(F)C(F)(F)C(F)(F)C(F)(F)C(F)(F)C(F)(F)F)cc1 | 135 °C
O=C(/C=C/c1ccco1)c1ccc(O)cc1 | 163 °C
N#Cc1cc(Cl)cc(Cl)c1N | 120 to 126 °C
O=C(c1ccccc1)c1ccccc1C(=O)c1ccccc1 | 146 °C
CNCc1csc(C2CCN(C(=O)OC(C)(C)C)CC2)n1 | 43 to 47 °C
CC(C)(C)OC(=O)NCC(N)=S | 129 to 131 °C
C=C1CCC(=O)O1 | 18 °C
N#Cc1c(-c2ccccc2)nn(-c2ccccc2)c1N | 161 °C
C(=C1c2ccccc2C2C1OC1/C(=C\c3ccccc3)c3ccccc3C12)c1ccccc1 (stereo not given) | 214 to 215 °C
CC(=O)OC1=C(C(C)C)C(=O)C2=C(C1=O)C1(C)CCCC(C)(C)C1CC2OC(C)=O (stereo not given) | 121 °C
Cc1cccc2c1C(=O)OC2=O | 116 °C
COc1cc2c(cc1OC)C(=S)NCC2 | 223 to 226 °C

SMILES | melting point
COC(=O)Cn1nnc(N2CCOCC2)n1 | 100 to 103 °C
CC(C)(C)OC(=O)c1cccc(N)c1 | 81 to 83 °C
CCCCCCCCCCCCCCCCC=O | 36 °C
CC(C)=CCCC(C)=CC=CC(C)=CC=CC(C)=CC=CC=C(C)C=CC=C(C)C=CC=C(C)CCCC(C)(C)O | 171 °C
Cc1nsc(-c2ccc(Cl)cc2)n1 | 81 to 83 °C
CC(C)(C)N(NC(=O)c1ccccc1)C(=O)c1cc(Cl)ccc1Cl | 214 °C
Cc1nc2sccn2c1C(=O)NN | 150 °C
CC(=O)Nc1ccc([N+](=O)[O-])cn1 | 200 °C
O=C(C=NNc1ccccc1)c1ccc(C(=O)C=NNc2ccccc2)cc1 | 210 °C
N#C/C(=C/c1ccc(Cl)cc1Cl)c1nc(-c2ccc([N+](=O)[O-])cc2)cs1 | 210 °C
OCC1OC(n2cnc3cncnc32)C(O)C1O (stereo not given) | 181 °C
Cc1cc(C(C)(C)C)c(O)c(C(C)(C)C)c1 | 71 °C
Oc1ccc(-c2ccccc2)cc1Cl | 77 °C
O=C1NCCSC1c1ccccc1 (stereo not given) | 158 to 162 °C
N#CC1=C(N)Oc2c(c(C(F)(F)F)nn2-c2ccccc2)C1c1ccc(Cl)cc1Cl (stereo not given) | 210 °C
CCc1c[nH]c(=O)[nH]c1=O | 309 °C
CC12CCC(C(=CC=C3C(=O)C4(C)CCC3C4(C)C)C1=O)C2(C)C | 283 to 285 °C
CC1(C)N=C(N)C(C)(C)N1O | 225 to 228 °C
O=C(Cl)c1cc(C(=O)Cl)c([N+](=O)[O-])cc1[N+](=O)[O-] | 107 °C
CN(C)c1ccc(P(=O)(c2ccc(N(C)C)cc2)c2ccc(N(C)C)cc2)cc1 | 275 to 280 °C
Cn1nc(-c2ccco2)cc1C(=O)O | 130 °C
N#Cc1ccc(NC(N)=S)cc1 | 209 to 210 °C
O=C(O)c1ccccc1O | 157 °C
CC(=O)NC1C(O)OC(CO)C(O)C1OC(C)C(=O)O (stereo not given) | 125 °C
CCCCOCCOC(C)=O | -63 °C
